{"source": "patent US9145372B2", "about": "“Pyridazine derivatives, compositions and methods for treating cognitive impairment” (AGENEBIO, INC., priority 2010, dated 2015)", "key": {"[1]": {"biological_target": "GABAA α5 receptor (Rattus norvegicus, UniProt P18508+P19969)", "sequence (P19969 32-464 limits assumed)": "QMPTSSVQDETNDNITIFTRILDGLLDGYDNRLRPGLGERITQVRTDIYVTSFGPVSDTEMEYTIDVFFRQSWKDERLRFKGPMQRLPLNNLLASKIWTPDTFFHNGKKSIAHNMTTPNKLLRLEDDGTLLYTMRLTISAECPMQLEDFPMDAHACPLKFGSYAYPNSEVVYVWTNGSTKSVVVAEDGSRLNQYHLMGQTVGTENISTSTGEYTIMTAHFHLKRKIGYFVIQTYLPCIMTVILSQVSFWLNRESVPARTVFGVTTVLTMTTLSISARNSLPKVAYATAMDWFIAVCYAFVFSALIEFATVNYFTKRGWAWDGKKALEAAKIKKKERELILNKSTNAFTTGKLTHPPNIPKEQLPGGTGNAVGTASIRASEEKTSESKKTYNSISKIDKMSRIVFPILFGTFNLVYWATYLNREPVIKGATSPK", "sequence (P18508 39-466)": "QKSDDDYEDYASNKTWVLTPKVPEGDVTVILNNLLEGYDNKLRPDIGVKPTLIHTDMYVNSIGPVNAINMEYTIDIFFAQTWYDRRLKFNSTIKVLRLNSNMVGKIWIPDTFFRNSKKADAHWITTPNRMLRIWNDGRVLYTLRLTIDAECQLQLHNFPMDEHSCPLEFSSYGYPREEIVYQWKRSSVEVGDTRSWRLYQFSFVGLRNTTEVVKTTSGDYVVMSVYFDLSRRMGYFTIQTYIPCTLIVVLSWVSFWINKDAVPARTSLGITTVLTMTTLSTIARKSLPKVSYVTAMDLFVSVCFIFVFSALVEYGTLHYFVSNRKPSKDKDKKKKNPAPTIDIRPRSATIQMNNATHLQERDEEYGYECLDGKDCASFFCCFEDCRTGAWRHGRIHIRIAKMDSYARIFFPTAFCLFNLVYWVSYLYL", "sequence (P63079 26-473 partner)": "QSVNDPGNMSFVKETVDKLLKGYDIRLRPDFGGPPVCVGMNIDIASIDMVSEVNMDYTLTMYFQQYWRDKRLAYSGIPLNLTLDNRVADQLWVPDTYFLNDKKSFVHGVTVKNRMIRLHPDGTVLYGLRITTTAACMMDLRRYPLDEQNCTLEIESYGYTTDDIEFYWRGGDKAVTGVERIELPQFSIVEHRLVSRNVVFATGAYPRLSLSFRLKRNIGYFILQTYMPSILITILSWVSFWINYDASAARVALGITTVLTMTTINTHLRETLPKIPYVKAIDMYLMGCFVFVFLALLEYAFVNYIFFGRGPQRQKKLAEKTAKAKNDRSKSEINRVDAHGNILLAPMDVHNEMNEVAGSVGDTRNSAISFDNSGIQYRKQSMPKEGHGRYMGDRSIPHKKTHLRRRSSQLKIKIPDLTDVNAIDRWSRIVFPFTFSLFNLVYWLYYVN", "assay": "GABAA α5 receptor occupancy in vivo with Ro 15-4513 tracer (hippocampus vs cerebellum)", "text": "Adult male Long Evans rats (265-295 g, Charles River, Portage, Mich., n=4/group) were used for GABAA α5 receptor occupancy studies. Rats were individually housed in ventilated stainless-steel racks on a 12:12 light/dark cycle. Food and water were available ad libitum.\nRo 15-4513 was used as a receptor occupancy (RO) tracer for GABAA α5 receptor sites in the hippocampus and cerebellum. Ro 15-4513 was chosen as the tracer based on its selectivity for GABAA α5 receptors relative to other alpha subunit containing GABAA receptors and because it has been successfully used for GABAA α5 RO studies in animals and humans (see, e.g., Lingford-Hughes et al., J. Cereb. Blood Flow Metab. 22:878-89 (2002); Pym et al, Br. J. Pharmacol. 146: 817-825 (2005); and Maeda et al., Synapse 47: 200-208 (2003)). Ro 15-4513 (1 μg/kg), was dissolved in 25% hydroxyl-propyl beta-cyclodextrin and administered i.v. 20′ prior to the RO evaluations. Methyl 3,5-diphenylpyridazine-4-carboxylate (0.1-10 mg/kg) was synthesized by Nox Pharmaceuticals (India) and was dissolved in 25% hydroxyl-propyl beta-cyclodextrin and administered i.v. 15′ prior to tracer injection.\nThe rats were sacrificed by cervical dislocation 20′ post tracer injection. The whole brain was rapidly removed, and lightly rinsed with sterile water. Trunk blood was collected in EDTA coated eppendorf tubes and stored on wet ice until study completion. Hippocampus and cerebellum were dissected and stored in 1.5 ml eppendorf tubes, and placed on wet ice until tissue extraction. In a drug naïve rat, six cortical brain tissues samples were collected for use in generating blank and standard curve samples.\nAcetonitrile containing 0.1% formic acid was added to each sample at a volume of four times the weight of the tissue sample. For the standard curve (0.1-30 ng/g) samples, a calculated volume of standard reduced the volume of acetonitrile. The sample was homogenized (FastPrep-24, Lysing Matrix D; 5.5 m/s, for 60 seconds or 7-8 watts power using sonic probe dismembrator; Fisher Scientific) and centrifuged for 16-minutes at 14,000 rpm. The (100 μl) supernatant solution was diluted by 300 μl of sterile water (pH 6.5). This solution was then mixed thoroughly and analyzed via LC/MS/MS for […] (tracer) and methyl 3,5-diphenylpyridazine-4-carboxylate.\nReceptor occupancy was determined by the ratio method which compared occupancy in the hippocampus (a region of high GABAA α5 receptor density) with occupancy in the cerebellum (a region with low GABAA α5 receptor density) and additionally by a high dose of the GABAA α5 negative allosteric modulator L-655,708 (10 mg/kg, i.v.) to define full occupancy."}, "[2]": {"biological_target": "T1, α5-containing GABAA R (Homo sapiens, UniProt P18507+P31644)", "T1 sequence (P31644 32-462)": "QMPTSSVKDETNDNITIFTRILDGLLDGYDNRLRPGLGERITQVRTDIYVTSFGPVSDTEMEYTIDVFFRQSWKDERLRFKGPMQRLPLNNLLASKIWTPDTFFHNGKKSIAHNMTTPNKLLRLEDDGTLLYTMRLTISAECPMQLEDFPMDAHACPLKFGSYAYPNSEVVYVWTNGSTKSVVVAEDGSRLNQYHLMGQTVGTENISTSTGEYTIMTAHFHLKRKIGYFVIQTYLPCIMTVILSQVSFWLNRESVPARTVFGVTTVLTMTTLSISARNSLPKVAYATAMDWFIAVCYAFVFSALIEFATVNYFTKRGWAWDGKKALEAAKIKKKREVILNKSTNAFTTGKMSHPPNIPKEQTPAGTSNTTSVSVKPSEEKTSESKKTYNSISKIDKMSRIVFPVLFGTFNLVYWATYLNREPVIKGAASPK", "T1 sequence (P28472 26-473 partner)": "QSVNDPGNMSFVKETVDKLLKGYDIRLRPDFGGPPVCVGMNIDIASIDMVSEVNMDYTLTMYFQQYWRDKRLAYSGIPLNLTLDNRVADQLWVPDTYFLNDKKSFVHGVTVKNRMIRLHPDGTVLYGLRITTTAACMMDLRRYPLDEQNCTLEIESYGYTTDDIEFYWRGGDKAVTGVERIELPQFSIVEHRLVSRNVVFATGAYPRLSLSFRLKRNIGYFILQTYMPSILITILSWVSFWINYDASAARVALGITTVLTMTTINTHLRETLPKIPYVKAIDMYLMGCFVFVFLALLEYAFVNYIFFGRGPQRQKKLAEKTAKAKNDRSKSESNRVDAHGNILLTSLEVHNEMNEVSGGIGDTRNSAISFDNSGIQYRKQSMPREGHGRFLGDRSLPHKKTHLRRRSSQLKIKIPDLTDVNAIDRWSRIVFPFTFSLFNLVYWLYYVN", "T1 sequence (P18507 40-467 limits assumed)": "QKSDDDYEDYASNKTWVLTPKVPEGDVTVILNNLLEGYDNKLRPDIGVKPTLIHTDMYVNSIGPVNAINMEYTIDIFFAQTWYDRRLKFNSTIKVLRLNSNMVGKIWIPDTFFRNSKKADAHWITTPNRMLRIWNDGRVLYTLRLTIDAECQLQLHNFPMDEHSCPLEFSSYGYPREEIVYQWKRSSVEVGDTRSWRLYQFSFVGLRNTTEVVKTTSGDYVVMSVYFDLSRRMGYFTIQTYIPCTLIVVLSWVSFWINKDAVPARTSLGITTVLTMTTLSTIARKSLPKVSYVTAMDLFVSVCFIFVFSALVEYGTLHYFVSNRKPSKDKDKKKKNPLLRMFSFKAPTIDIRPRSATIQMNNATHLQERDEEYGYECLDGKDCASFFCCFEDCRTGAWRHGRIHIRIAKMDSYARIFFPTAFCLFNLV", "settings": "at GABA EC20; van Niel et al.; cited from earlier work"}}, "note": "Entries after “also recorded” stand apart in the source; their conditions may differ."}
{"smiles": "COC(=O)c1c(-c2ccccc2)cnnc1-c1ccccc1", "note": "[methyl 3,5-diphenylpyridazine-4-carboxylate]", "values": [{"measurement": "Ro 15-4513 binding in hippocampus", "setting": "[1]; 0.01-10 mg/kg, i.v.", "result": "blocked; also recorded: dose-dependently reduced"}, {"measurement": "cerebellum levels (binding) of Ro 15-4513", "setting": "[1]; 0.01-10 mg/kg, i.v.", "result": "did not affect; also recorded: without affecting"}, {"measurement": "GABAA α5 receptors occupied at exposures behaviorally active in aged-impaired rats", "setting": "[1]; hippocampus, FIG. 5", "result": "about 32%"}, {"measurement": "ED50 of receptor occupancy, ratio method", "setting": "[1]; i.v., hippocampus/cerebellum ratio method", "result": 1.8, "unit": "mg/kg"}, {"measurement": "receptor occupancy at 10 mg/kg", "setting": "[1]; rat, iv, read-out: GABAA α5 receptor occupancy", "result": "> 90", "unit": "%"}, {"measurement": "receptor occupancy at 1 mg/kg", "setting": "[1]; rat, iv, read-out: receptor occupancy at an exposure of 180 ng/g in hippocampus", "result": "32 to 39", "unit": "%"}, {"measurement": "α5 in vitro efficacy (EC20)", "setting": "[2]", "result": "+27"}]}
